Tests used:
Format in all cases: cell-based, human
PEG-encapsulated hMSCs = test: PEG-encapsulated hMSC proliferation by total cellular DNA concentration (PicoGreen)
Method: FIG. 7 Schematic representation of 18 day PEG-encapsulated hMSC culture after 24 hr exposure to BIO-containing media (A). Cell DNA concentration was quantified on days 0, 1, 5, 12, and 18 and shown to undergo a dose-dependent, BIO-mediated increase in proliferation (B), as previously shown in two-dimensional cultures. Representative LIVE/DEAD confocal images of PEG-encapsulated BIO-treated hMSC cultures (C).
A 10 wt % solution of PEGDM was prepared in phosphate buffered saline (PBS) with 2.0 mM acryloyl-PEG-RGDS. The photoinitiator lithium phenyl-2,4,6-trimethylbenzoylphosphinate (LAP) was synthesized using conventional techniques and added at a final concentration of 0.05 wt %. Trypsinized hMSCs were centrifuged to form pellets and counted. The PEG macromer solution was added to the cell pellet, and volumes were adjusted to achieve a final cell concentration of 25 million cells/mL. Using a sterile 1 mL syringe with the tip removed as a mold, 40 μL of PEG/cell solution was added and exposed to long-wavelength 365 nm light (5 mW/cm^2 intensity) for 10 min at room temperature. […]
Encapsulated hMSC proliferation was assessed using total cellular DNA concentration, assuming constant DNA per cell, using a Quant-iT PicoGreen dsDNA Assay Kit (Invitrogen). […]

[1] = test system: markers of undifferentiated stem cells, Sox2, Nanog, and Oct4; test: RT-PCR of Sox2, Nanog, Oct4 in PEG-encapsulated BIO-treated hMSCs; conditions: for Nanog gene expression relative to untreated controls / Oct4 gene expression relative to untreated controls / Sox2 gene expression relative to untreated controls: 5 μM BIO
Method: RT-PCR was used to assess gene expression of hMSCs over time. At days: 0 (before BIO treatment), 1, 3, 6, 19, 29, 34, 37, and 41, samples were lysed and total RNA was isolated (ENZA Total RNA Kit, Omega). Reverse transcription was performed using the iScript cDNA Synthesis Kit (Bio-Rad). The reverse transcription reaction was incubated at 25° C. for 5 min, 42° C. for 30 min, and terminated at 85° C. for 5 min. PCR was performed using a CFX96 Real-Time PCR System (Bio-Rad), monitoring sybrgreen products (SsoFastEvaGreen Master Mix, Bio-Rad). Primers for β-actin, sex determining region Y-box 2 (Sox2), Nanog homobox (Nanog), and octamer-binding transcription factor 4 (Oct4), core-binding factor subunit alpha-1 (Cbfa1, also known as Runx2), sex determining region Y-box 9 (Sox9), and peroxisome proliferator-activated receptor gamma (PPARγ) were used (Table 2). The PCR parameters used were as follows: hold at 95° C. for 5 min, followed by 40 cycles of: 95° C. for 15 sec denaturation, 60° C. (β-actin, Sox2, Sox9), or 57° C. (Nanog, Oct4, Cbfa1), or 55° C. (PPARγ) for 60 sec annealing, and 72° C. for 20 sec extension. Threshold cycle (CT) analysis was used to quantify PCR products normalized to the cellular housekeeping gene β-actin. Relative gene quantification was performed using the Pfaffl Method, taking into account the variation between primer efficiencies.
A 10 wt % solution of PEGDM was prepared in phosphate buffered saline (PBS) with 2.0 mM acryloyl-PEG-RGDS. The photoinitiator lithium phenyl-2,4,6-trimethylbenzoylphosphinate (LAP) was synthesized using conventional techniques and added at a final concentration of 0.05 wt %. Trypsinized hMSCs were centrifuged to form pellets and counted. The PEG macromer solution was added to the cell pellet, and volumes were adjusted to achieve a final cell concentration of 25 million cells/mL. Using a sterile 1 mL syringe with the tip removed as a mold, 40 μL of PEG/cell solution was added and exposed to long-wavelength 365 nm light (5 mW/cm^2 intensity) for 10 min at room temperature. After photopolymerization was complete, the cell/hydrogel disks were removed from the syringes and placed in 24-well tissue culture plates (Greiner Bio-One, Monroe, N.C.) with growth media. The constructs were cultured up to 3 weeks at 37° C. and 5% CO2 with media changes occurring every three days.
Encapsulated hMSC viability, BIO treatment, and assessment of gene expression was performed as described in Section 2.3 with exception of cell lysate collection. For assessment of gene expression hMSC-PEG constructs were homogenized in lysis buffer and centrifuged to pellet polymerized PEG. The supernatant was then collected for analysis.

[2] = test system: stem markers Sox2 and Nanog; test: RT-PCR of stem markers Sox2 and Nanog at end of 33 day culture, normalized to GAPDH (Example 1); conditions: end of 33 day time course
Method: FIG. 2 RNA was harvested from BIO treated hMSCs at day […] and analyzed for expression of stem markers Sox2 and Nanog. Expression was normalized to housekeeping gene GAPDH. Error bars shown are standard error (n=3).
At the end of the 33 day experimental time course RNA was isolated (Omega E.N.Z.A total RNA kit) from the hMSC specimens (n=3) and reverse transcription (Bio-Rad iSCRIPT cDNA synthesis kit) was performed to yield cDNA. Forward and reverse primers (Table 1.) for the stem markers Sox2 and Nanog as well as the housekeeping gene, GAPDH (Glyceraldehyde 3-phosphate dehydrogenase) were then used to quantify gene expression. Expressions of genes of interest (Sox2 and Nanog) were normalized to control (GAPDH). We observed a dose dependent increase in both Sox2 and Nanog gene expression. Sox2 expression increased ˜30% and ˜50% with 2 μM and 5 μM BIO treatment, while Nanog expression increased >100% with 5 μM BIO treatment (FIG. 2).

## O=C1Nc2cc(Br)ccc2/C1=C1/Nc2ccccc2/C1=N\O [BIO, 6-bromoindirubin-3′-oxime]
PEG-encapsulated hMSCs; 5 uM BIO
  3D proliferation relative to untreated control: 120%
PEG-encapsulated hMSCs; 5 μM BIO, at both days 12 and 18, PEG hydrogels
  increase in proliferation (normalized DNA concentration) versus 0 μM: 20%
[1]; PEG hydrogel-encapsulated hMSCs
  time at which Sox2, Nanog, and Oct4 expression returned to basal levels: ~18 days
[1]; day 1, PEG-encapsulated
  Nanog gene expression relative to untreated controls: 2.4 fold
  Oct4 gene expression relative to untreated controls: 3.5 fold
  Sox2 gene expression relative to untreated controls: 2.2 fold
[1]; day 12, PEG-encapsulated
  Nanog gene expression relative to untreated controls: 2.7 fold
  Oct4 gene expression relative to untreated controls: 4.3 fold
  Sox2 gene expression relative to untreated controls: 4.1 fold
[2]; 2 μM BIO
  Sox2 expression increase: ~30%
[2]; 5 μM BIO
  Nanog expression increase: > 100%
  Sox2 expression increase: ~50%

From patent US9193954B2, “Methods and compositions for mesenchymal stem cell proliferation” (priority 2011, dated 2015)
